Results on six compounds are retold here after EP1444982A1, “The use of purine derivatives as selective kinase inhibitors” (MERCKLE GMBH, priority 2003, dated 2004).

Common to all, as to assay type: biochemical
The target in assay [1] is c-RAF (h) (Homo sapiens, UniProt P04049). The experiment in a line: Kinase inhibition assay (33P-ATP, P30 filter, scintillation counting): c-RAF. As to conditions: 40 min; 30µM Testsubstanz (100 µM ATP); read-out: Hemmung von Kinasen in % c-RAF (h). As for the experimental part: (§1) Alle Kinasen werden auf zehnfache Arbeitskonzentration vor Anwendung in dem Essay verdünnt. Die Zusammensetzung des Verdünnungspuffers ist für jede Kinase in der nachfolgenden Tabelle angegeben.
(§2) Alle Substrate werden gelöst und auf eine Stammlösung in entsalztem Wasser verdünnt.
(§3) c-RAF (ha)(5-10 mU) in einem Endreaktionsvolumen von 25 µl wird mit 25 mM Tris pH 7.5,.0.02 mM EGTA, 0.66 mg/ml Myelin-Basisprotein, 10 mM MgAcetat und [γ-^33P-ATP] inkubiert (spezifische Aktivität etwa 50 cpm/pmol, Konzentration wie erforderlich). Die Reaktion wird durch Zugabe von Mg^2+[γ-^33P-ATP] initiiert. Nach 40-minütiger Inkubation bei Raumtemperatur wird die Reaktion durch Zugabe von 5 µl einer 3 %igen Phosphorsäurelösung gestoppt. 10 µl der Reaktion werden dann auf ein P30-Filter gegeben und dreimal jeweils 5 Minuten in 50 mM Phosphorsäure und einmal in Methanol gewaschen. Anschließend wird getrocknet und eine Szintillationszählung durchgeführt.

The target of assay [2] is GSK3β (h) (Homo sapiens, UniProt P49841). Kind of assay: Kinase inhibition assay (33P-ATP, P30 filter, scintillation counting): GSK3β. The note with it: 30µM Testsubstanz (100 µM ATP); read-out: Hemmung von Kinasen in % GSK3β (h). Here is the method:
as §1, §2
as §3, with “GSK3β (h)(5-10mU) in” for “c-RAF (ha)(5-10 mU) in”, “mit 8” for “mit 25”, “mM MOPS” for “mM Tris”, “pH 7.0, 0.2” for “pH 7.5,.0.02”, “mM EDTA, 20 µM […](p) EDEEE (phospho GS2 Peptid),” for “mM EGTA, 0.66 mg/ml Myelin-Basisprotein,”, “etwa 500” for “etwa 50”

Assay [3] concerns the target JNK3 (r) (Rattus norvegicus, UniProt P49187). Kind of assay: Kinase inhibition assay: JNK3. The note with it: 30µM Testsubstanz (100 µM ATP); read-out: Hemmung von Kinasen in % JNK3 (r).
From the text: as §1, §2

Assay [4] concerns the target Lck (h) (Homo sapiens, UniProt P06239). Kind of assay: Kinase inhibition assay (33P-ATP, P30 filter, scintillation counting): Lck. The note with it: 30µM Testsubstanz (100 µM ATP); read-out: Hemmung von Kinasen in % Lck (h). Here is the method: as §1, §2
as §3, with “Lck (h)(5-10 mU)” for “c-RAF (ha)(5-10 mU)”, “mit 50” for “mit 25”, “pH 7.5, 0.1” for “pH 7.5,.0.02”, “EGTA, 0.1 mM NaVanadate, 250 µM KVEKIGEGTYGVVYK (Cdc2 Peptid),” for “EGTA, 0.66 mg/ml Myelin-Basisprotein,”, “etwa 500” for “etwa 50”

The target of assay [5] is MAPK1 (h) (Homo sapiens, UniProt P27361). Kind of assay: Kinase inhibition assay: MAPK1. As to conditions: 30µM Testsubstanz (100 µM ATP); read-out: Hemmung von Kinasen in % MAPK1 (h).
From the text: as §1, §2

Assay [6] addresses MAPK2 (h) (Homo sapiens, UniProt P28482). Kind of assay: Kinase inhibition assay: MAPK2. The note with it: 30µM Testsubstanz (100 µM ATP); read-out: Hemmung von Kinasen in % MAPK2 (h).
From the text: as §1, §2

In assay [7] the target is MEK1 (h) (Homo sapiens, UniProt Q02750). The experiment in a line: Kinase inhibition assay: MEK1 (coupled to MAPK2 assay). The note with it: 30µM Testsubstanz (100 µM ATP); read-out: Hemmung von Kinasen in % MEK1 (h). As for the experimental part:
as §1, §2
MEK1 (h)(1-5 mU) in einem Endreaktionsvolumen von 25 µl wird mit 50 mM Tris pH 7.5, 0.2 mM EGTA, 0.1 % b-Mercaptoethanol, 0,01 % Brij-35, 1 µM inaktives MAPK2 (m), 10 mM MgAcetat und kaltem ATP inkubiert (Konzentration wie erforderlich). Die Reaktion wird durch Zugabe von MgATB initiiert. Nach 40-minütiger Inkubation bei Raumtemperatur werden […] dieses Inkubationsgemisches dazu verwendet, den oben beschriebenen MAPK2-Assay zu initiieren.

Assay [8] has as its system PKA (h). Kind of assay: Kinase inhibition assay (33P-ATP, P30 filter, scintillation counting): PKA. As to conditions: 30µM Testsubstanz (100 µM ATP); 40 min.
Assay [9] concerns the target PKB (h) (Homo sapiens, UniProt P31749). The experiment in a line: Kinase inhibition assay (33P-ATP, P30 filter, scintillation counting): PKB. The note with it: 40 min; 30µM Testsubstanz (100 µM ATP); read-out: Hemmung von Kinasen in % PKB (h). Here is the method: as §1, §2
as §3, with “PKBα (h)(5-10mU) wird in” for “c-RAF (ha)(5-10 mU) in”, “µl” for “µl wird”, “mit 8” for “mit 25”, “mM MOPS” for “mM Tris”, “pH 7.0, 0.2” for “pH 7.5,.0.02”, “mM EDTRA, 30 µM GRPRTSSFAEGKK,” for “mM EGTA, 0.66 mg/ml Myelin-Basisprotein,”

In assay [10] the test system is ROCKII (h). Kind of assay: Kinase inhibition assay (33P-ATP, P30 filter, scintillation counting): ROCK-II. The note with it: 30µM Testsubstanz (100 µM ATP); 40 min.
Assay [11] deals with SAPK2a (h) (Homo sapiens, UniProt Q16539). Kind of assay: Kinase inhibition assay (33P-ATP, P30 filter, scintillation counting): SAPK2a. As to conditions: 30µM Testsubstanz (100 µM ATP); read-out: Hemmung von Kinasen in % SAPK2a (h). Here is the method: as §1, §2
as §3, with “SAPK2a (h) wird” for “c-RAF (ha)(5-10 mU)”, “µl” for “µl wird”, “7,5, 0.02” for “7.5,.0.02”, “0.33” for “0.66”

c-RAF (h), sequence (P04049 whole entry): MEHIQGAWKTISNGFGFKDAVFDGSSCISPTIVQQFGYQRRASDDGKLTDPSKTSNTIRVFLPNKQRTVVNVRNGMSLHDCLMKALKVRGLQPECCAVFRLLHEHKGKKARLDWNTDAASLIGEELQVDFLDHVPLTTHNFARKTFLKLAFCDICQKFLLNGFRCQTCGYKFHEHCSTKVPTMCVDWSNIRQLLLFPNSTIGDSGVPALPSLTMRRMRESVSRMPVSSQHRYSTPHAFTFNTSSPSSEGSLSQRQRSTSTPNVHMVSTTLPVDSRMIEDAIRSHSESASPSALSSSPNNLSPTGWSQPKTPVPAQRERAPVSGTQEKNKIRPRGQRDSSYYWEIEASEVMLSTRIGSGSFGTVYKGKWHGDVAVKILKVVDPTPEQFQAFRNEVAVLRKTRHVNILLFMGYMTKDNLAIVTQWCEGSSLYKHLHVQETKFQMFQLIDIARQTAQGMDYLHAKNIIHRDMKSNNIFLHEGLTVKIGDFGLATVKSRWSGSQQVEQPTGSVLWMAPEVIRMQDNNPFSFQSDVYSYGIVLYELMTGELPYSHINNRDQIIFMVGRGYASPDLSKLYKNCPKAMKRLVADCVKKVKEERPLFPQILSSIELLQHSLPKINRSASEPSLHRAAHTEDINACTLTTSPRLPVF
Lck (h), sequence (P06239 whole entry): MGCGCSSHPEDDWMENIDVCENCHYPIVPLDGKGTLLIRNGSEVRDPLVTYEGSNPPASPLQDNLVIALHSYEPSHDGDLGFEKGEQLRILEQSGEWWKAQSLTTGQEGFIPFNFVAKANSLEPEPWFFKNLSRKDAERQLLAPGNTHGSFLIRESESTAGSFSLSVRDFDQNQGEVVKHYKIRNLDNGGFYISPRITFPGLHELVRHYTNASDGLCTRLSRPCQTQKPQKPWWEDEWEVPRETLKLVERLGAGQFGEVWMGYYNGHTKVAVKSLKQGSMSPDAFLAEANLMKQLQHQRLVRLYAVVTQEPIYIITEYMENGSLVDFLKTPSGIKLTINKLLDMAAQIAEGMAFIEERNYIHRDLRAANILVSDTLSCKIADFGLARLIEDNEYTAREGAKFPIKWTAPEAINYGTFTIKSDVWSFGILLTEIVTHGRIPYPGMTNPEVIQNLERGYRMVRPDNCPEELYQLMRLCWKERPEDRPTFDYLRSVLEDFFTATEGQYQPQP
MEK1 (h), sequence (Q02750 whole entry): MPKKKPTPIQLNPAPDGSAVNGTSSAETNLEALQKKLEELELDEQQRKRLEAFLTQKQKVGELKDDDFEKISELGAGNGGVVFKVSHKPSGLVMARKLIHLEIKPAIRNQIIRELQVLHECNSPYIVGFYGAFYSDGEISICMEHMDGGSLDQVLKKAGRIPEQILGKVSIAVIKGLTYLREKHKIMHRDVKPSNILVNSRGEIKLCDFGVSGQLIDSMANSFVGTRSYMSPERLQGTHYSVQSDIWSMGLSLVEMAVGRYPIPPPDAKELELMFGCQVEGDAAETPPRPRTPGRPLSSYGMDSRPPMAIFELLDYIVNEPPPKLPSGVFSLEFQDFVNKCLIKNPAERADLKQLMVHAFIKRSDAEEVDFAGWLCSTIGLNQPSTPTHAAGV
SAPK2a (h), sequence (Q16539 whole entry): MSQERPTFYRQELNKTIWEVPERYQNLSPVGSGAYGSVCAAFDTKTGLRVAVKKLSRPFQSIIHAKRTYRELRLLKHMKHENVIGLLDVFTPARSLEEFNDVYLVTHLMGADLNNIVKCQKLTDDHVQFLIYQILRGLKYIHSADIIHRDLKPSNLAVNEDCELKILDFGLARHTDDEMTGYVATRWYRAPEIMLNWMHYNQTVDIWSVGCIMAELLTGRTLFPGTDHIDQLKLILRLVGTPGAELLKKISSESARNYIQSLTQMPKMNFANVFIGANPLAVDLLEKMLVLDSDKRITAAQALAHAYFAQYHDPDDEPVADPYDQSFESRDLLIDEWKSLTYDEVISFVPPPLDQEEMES
GSK3β (h), sequence (P49841 whole entry): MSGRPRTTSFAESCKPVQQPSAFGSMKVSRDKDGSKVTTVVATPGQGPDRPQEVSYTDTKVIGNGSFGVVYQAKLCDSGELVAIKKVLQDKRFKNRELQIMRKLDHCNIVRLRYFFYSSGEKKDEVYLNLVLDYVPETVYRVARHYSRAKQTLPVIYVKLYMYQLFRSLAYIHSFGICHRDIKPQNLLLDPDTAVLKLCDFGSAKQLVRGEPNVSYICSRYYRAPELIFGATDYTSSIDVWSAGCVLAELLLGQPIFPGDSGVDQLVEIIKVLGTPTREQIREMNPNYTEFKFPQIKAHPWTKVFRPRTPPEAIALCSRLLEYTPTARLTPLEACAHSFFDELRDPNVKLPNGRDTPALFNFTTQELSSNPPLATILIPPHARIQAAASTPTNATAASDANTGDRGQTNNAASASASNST
JNK3 (r), sequence (P49187 whole entry): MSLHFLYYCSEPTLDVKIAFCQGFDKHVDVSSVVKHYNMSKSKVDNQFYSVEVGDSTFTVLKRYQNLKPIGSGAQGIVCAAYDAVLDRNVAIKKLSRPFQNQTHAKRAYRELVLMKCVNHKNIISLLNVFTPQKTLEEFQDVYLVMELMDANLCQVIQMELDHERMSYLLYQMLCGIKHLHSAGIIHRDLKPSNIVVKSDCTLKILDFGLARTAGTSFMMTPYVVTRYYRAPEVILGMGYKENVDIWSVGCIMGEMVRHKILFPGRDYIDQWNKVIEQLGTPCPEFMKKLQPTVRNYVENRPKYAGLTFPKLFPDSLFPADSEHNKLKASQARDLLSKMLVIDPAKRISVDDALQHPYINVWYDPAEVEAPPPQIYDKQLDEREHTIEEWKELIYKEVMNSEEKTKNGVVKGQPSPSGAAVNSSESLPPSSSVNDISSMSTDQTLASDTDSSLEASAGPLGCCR
MAPK2 (h), sequence (P28482 whole entry): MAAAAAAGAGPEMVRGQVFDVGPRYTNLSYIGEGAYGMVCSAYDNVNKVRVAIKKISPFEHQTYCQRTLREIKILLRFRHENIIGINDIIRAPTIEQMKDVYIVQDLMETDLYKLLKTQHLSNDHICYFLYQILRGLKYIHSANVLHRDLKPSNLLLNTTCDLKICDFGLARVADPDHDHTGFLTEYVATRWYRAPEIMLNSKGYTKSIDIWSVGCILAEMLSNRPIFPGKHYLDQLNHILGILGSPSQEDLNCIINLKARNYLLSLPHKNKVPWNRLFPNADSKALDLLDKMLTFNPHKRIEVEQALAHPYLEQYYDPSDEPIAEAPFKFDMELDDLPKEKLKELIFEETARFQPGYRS
PKB (h), sequence (P31749 whole entry): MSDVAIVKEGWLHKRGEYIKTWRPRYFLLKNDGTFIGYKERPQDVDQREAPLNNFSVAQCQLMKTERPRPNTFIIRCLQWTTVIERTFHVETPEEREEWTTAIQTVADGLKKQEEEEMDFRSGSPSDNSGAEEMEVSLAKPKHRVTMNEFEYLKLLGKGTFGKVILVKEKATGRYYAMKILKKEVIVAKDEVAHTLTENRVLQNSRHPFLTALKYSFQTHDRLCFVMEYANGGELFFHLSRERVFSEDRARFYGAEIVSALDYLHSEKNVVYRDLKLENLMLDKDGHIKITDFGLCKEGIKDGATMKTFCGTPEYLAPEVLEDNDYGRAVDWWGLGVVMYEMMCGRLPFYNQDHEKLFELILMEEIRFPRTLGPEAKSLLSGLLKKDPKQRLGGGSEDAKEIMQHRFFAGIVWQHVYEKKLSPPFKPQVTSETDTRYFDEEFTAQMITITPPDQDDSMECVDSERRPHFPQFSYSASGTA
MAPK1 (h), sequence (P27361 whole entry): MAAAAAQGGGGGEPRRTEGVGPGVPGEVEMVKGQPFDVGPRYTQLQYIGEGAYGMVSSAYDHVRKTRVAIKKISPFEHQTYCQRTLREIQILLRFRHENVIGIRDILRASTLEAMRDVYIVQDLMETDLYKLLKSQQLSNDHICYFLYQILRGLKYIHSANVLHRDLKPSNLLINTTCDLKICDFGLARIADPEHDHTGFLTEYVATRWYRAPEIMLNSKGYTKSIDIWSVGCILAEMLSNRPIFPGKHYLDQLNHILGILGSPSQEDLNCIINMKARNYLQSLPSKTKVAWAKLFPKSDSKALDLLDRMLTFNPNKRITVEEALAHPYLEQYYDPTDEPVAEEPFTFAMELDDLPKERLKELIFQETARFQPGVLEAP

Regarding `Cn1c(-c2ccc([S+](C)[O-])cc2)nc2c(Sc3ccc(F)cc3)ncnc21` (stereo not drawn) [Verbd. 60, 6-(4-Fluoro-phenylsulfanyl)-8-(4-methan-sulfinyl-phenyl)-9-methyl-9H-purin], the inhibition at 30 µM in assay [1] was 4%; in [2] it was 4%; in assay [3] it was 10%; in [4], 30%; in assay [5], 0%; in assay [6], 0%. Moreover, the inhibition at 30 µM came out at 1% in assay [7], 10% in [9] and 44% in assay [11]. Further, in [8], the “Hemmung von Kinasen in % PKA (h)” value stood at 4%. Moreover, the “Hemmung von Kinasen in % ROCKII (h)” value in assay [10] was 0%.

Consider `c1ccc(Sc2ncnc3[nH]ccc23)cc1` [Verbd. 52, 4-Phenylsulfanyl-7H-pyrrolo[2,3-d]pyrimidin], for which the inhibition at 30 µM worked out at 22% in assay [1]; 11% in assay [2]; 0% in assay [3]; 56% in assay [4]; 11% in assay [5]; 4% in [6]. Further, the inhibition at 30 µM in assay [7] came out at 41%; in assay [9], 0%; in assay [11] it was 56%. In addition, the “Hemmung von Kinasen in % PKA (h)” value in [8] was 0%. The “Hemmung von Kinasen in % ROCKII (h)” value in [10] amounted to 36%.

In the case of `Cn1c(-c2ccc([S+](C)[O-])cc2)nc2c(Sc3ccccc3)ncnc21` (stereo not drawn) [Verbd. 59, 8-(4-Methansulfinyl-phenyl)-9-methyl-6-phenylsulfanyl-9H-purin], the inhibition at 30 µM in assay [1] is 0%; in [2] it was 4%; in assay [3], 6%; in assay [4] it was 30%; in assay [5], 0%; in [6] it was 0%. In addition, the figures for the inhibition at 30 µM in assay [7], in assay [9] and in [11] were 3%, 4% and 27%, respectively. For the same compound, in [8], the “Hemmung von Kinasen in % PKA (h)” value is on record as 0%. Besides, the “Hemmung von Kinasen in % ROCKII (h)” value in assay [10] was found to be 1%.

Consider `Nc1ncnc2ncn(Cc3ccc(F)cc3)c12` [Verbd. 43, 7-(4-Fluoro-benzyl)-7H-purin-6-ylamin], for which the inhibition at 30 µM in assay [1] is 28%; in assay [2] it was 0%; in assay [3] it was 25%; in [4], 0%; in [5] it was 26%; in assay [6], 5%. The inhibition at 30 µM is 8% in assay [7], 0% in assay [9] and 8% in assay [11]. In addition, the “Hemmung von Kinasen in % PKA (h)” value in assay [8] was found to be 7%. Further, in [10], the “Hemmung von Kinasen in % ROCKII (h)” value stood at 6%.

With `Cn1cnc2c(Nc3ccc(F)cc3)ncnc21` [Verbd. 14, (4-Fluoro-phenyl)-(9-methyl-9H-purin-6-yl)-amin], the inhibition at 30 µM was determined as 27% in [1]; 14% in assay [2]; 19% in assay [3]; 9% in assay [4]; 36% in assay [5]; 57% in assay [6]. The values for the inhibition at 30 µM in assay [7], in assay [9] and in assay [11] were 8%, 0% and 13%, respectively. In addition, the “Hemmung von Kinasen in % PKA (h)” value in [8] is on record as 0%. The “Hemmung von Kinasen in % ROCKII (h)” value in [10] was 7%.

For `Fc1ccc(Cn2cnc3c(Sc4ccccc4)ncnc32)cc1` [Verbd. 76, 9-(4-Fluoro-benzyl)-6-phenylsulfanyl-9H-purin], the inhibition at 30 µM in assay [1] turned out to be 0%; in [2], 0%; in [3], 0%; in assay [4] it was 12%; in assay [5] it was 17%; in assay [6], 0%. The inhibition at 30 µM came out at 1% in assay [7], 13% in assay [9] and 67% in assay [11]. The “Hemmung von Kinasen in % PKA (h)” value in assay [8] is on record as 0%. The “Hemmung von Kinasen in % ROCKII (h)” value in assay [10] turned out to be 2%.
